Columns and labels:
THRβ = target: T1, THRβ (Homo sapiens, UniProt P10828); test: THRβ binding assay (time-resolved FRET coactivator peptide recruitment); assay type: biochemical; conditions: THRβ-LBD/RXRα, SRC2-2 coactivator peptide recruitment, 4 hours at room temperature
T1 construct: RXRα and THRβ-LBD Eu-anti-GST antibody with GST tag
Procedure: Experimental methods: In vitro analysis of the agonistic effect of compounds on THRβ was performed using time-resolved fluorescence resonance energy transfer coactivator peptide recruitment assays. The assay used biotin-SRC2-2 coactivator peptide, streptavidin-d2, RXRα and THRβ-LBD Eu-anti-GST antibody with GST tag. Eu-anti-GST antibody indirectly labeled THRβ-LBD by binding to the GST tag. Streptavidin-d2 indirectly labeled the SRC2-2 coactivator peptide by binding to the biotin tag. In the presence of RXRα, THRβ-LBD can form heterodimer THRβ-LBD/RXRα with it. […] According to the effect of different concentrations of the compound on the activity of THRβ, the agonistic ability of the compound can be evaluated.
The detailed procedure is as follows: • a. 100× reference compound or compound was prepared with DMSO, and equally diluted by 1:3. • b. 100× gradiently diluted reference compound or compound was diluted with 1× reaction buffer to 4×, which was then added to an assay plate. • c. A mixed solution of 4× THRβ-LBD and 4× RXRα was prepared with 1× reaction buffer, and added to the assay plate. • d. A mixed solution of 2× biotin-SRC2-2, 2× Eu-anti-GST, and 2× streptavidin-d2 was prepared with 1× reaction buffer, and added to the assay plate. • e. The assay plate was centrifuged at 1000 rpm for 1 min, and incubated at room temperature in the dark for 4 hours. • f.

THRα = target: T2, THRα (Homo sapiens, UniProt P10827); test: THRα binding assay (as the THRβ assay, THRβ replaced with THRα); assay type: biochemical; conditions: for EC50: THRα in place of THRβ; for THRα/β selectivity (fold): ratio of THRα EC50 to THRβ EC50
T2 construct: GST
T2 sequence (P10827 1-410 isoform P10827-2, other chains not shown): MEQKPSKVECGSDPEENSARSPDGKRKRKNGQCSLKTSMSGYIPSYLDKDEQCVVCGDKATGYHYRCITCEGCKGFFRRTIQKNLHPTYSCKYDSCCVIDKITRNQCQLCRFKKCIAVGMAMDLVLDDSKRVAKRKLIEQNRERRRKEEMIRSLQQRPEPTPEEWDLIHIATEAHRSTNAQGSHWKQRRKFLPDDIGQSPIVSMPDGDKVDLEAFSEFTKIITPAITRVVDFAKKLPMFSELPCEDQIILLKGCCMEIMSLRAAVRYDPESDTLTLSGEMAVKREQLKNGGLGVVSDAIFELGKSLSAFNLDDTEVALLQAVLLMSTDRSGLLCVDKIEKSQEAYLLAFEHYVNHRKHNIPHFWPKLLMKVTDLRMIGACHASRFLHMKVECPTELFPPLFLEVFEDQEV
T2 sequence (P19793 whole entry partner, other chains not shown): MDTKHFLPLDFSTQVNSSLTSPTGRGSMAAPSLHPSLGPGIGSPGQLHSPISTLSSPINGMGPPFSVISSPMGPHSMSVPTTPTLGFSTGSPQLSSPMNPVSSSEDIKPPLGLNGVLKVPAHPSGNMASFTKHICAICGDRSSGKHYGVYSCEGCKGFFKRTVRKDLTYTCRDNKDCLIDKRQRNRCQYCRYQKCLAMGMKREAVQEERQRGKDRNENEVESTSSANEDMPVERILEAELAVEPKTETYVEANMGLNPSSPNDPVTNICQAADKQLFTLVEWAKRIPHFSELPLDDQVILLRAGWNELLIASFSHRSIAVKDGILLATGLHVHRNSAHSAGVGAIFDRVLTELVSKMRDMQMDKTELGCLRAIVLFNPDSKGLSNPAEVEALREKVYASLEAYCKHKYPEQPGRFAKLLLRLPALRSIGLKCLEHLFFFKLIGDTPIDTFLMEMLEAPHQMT

T1 sequence (P10828 217-461 limits assumed, other chains not shown): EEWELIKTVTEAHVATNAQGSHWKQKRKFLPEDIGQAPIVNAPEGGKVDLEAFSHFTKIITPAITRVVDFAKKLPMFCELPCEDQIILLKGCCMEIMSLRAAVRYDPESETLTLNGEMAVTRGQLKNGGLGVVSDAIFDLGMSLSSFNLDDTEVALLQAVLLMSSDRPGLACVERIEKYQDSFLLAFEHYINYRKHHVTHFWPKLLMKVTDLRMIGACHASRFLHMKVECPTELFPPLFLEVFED
T1 sequence (P19793 whole entry partner, other chains not shown, the tested form may be a part): as the sequence (P19793 whole entry partner, other chains not shown) above

Structure (SMILES) | EC50 (THRβ) [nM] | EC50 (THRα) [nM] | THRα/β selectivity (fold) (THRα)
N#Cc1nn(-c2cc(Cl)c(Oc3ccc(=O)[nH]c3)c(Cl)c2)c(=O)[nH]c1=O [Example 2, 2-(3,5-Dichloro-4-((6-oxo-1,6-dihydropyridin-3-yl)oxy)phenyl)-3,5-dioxo-2,3,4,5-tetra hydro-1H-1,2,4-triazine-6-carbonitrile] | 3650 |  | 
CC(C)Cn1cc(Oc2c(Cl)cc(-n3nc(C#N)c(=O)[nH]c3=O)cc2Cl)ccc1=O [Example 6, 2-(3,5-Dichloro-4-[(1-(2-methylpropyl)-6-oxo-1,6-dihydropyridin-3-yl)oxy]phenyl)-3,5-dioxo-2,3,4,5-tetrahydro-1,2,4-triazine-6-carbonitrile] | 100 | 2030 | 20.3
CCC(CC)n1cc(Oc2c(Cl)cc(-n3nc(C#N)c(=O)[nH]c3=O)cc2Cl)ccc1=O [Example 7, 2-(3,5-dichloro-4-((6-oxo-1-(pentan-3-yl)-1,6-dihydropyridin-3-yl)oxy)phenyl)-3,5-dioxo-2,3,4,5-tetrahydro-1,2,4-triazine-6-carbonitrile] | 40 |  | 
COCCn1cc(Oc2c(Cl)cc(-n3nc(C#N)c(=O)[nH]c3=O)cc2Cl)ccc1=O [Example 8, 2-(3,5-Dichloro-4-((1-(2-methoxyethyl)-6-oxo-1,6-dihydropyridin-3-yl)oxy)phenyl) -3,5-dioxo-2,3,4,5-tetrahydro-1,2,4-triazine-6-carbonitrile] | 431 |  | 
Cc1cc(Oc2c(Cl)cc(-n3nc(C#N)c(=O)[nH]c3=O)cc2Cl)cn(C2CC2)c1=O [Example 18, 2-(3,5-Dichloro-4-((1-cyclopropyl-5-methyl-6-oxo-1,6-dihydropyridin-3-yl)oxy)phenyl) -3,5-dioxo-2,3,4,5-tetrahydro-1,2,4-triazine-6-carbonitrile] | 1430 |  | 
CC(C)n1cc(Oc2c(Cl)cc(-n3nc(C#N)c(=O)[nH]c3=O)cc2Cl)cc(C2CC2)c1=O [Example 19, 2-(3,5-Dichloro-4-((5-cyclopropyl-1-isopropyl-6-oxo-1,6-dihydropyridin-3-yl)oxy)phenyl)-3,5-dioxo-2,3,4,5-tetrahydro-1,2,4-triazine-6-carbonitrile] | 1340 |  | 
Cc1cccc(-n2cc(Oc3c(Cl)cc(-n4nc(C#N)c(=O)[nH]c4=O)cc3Cl)ccc2=O)c1 [Example 26, 2-(3,5-Dichloro-4-((6-oxo-1-(3-methylphenyl)-1,6-dihydropyridin-3-yl)oxy)phenyl)-3,5-dioxo-2,3,4,5-tetrahydro-1,2,4-triazine-6-carbonitrile] | 60 |  | 
Cc1ccccc1-n1cc(Oc2c(Cl)cc(-n3nc(C#N)c(=O)[nH]c3=O)cc2Cl)ccc1=O [Example 27, 2-(3,5-Dichloro-4-((6-oxo-1-(o-methylphenyl)-1,6-dihydropyridin-3-yl)oxy)phenyl)-3,5-dioxo-1,2,3,4-4,5-tetrahydro-1,2,4-triazine-6-carbonitrile] | 136 |  | 
N#Cc1nn(-c2cc(Cl)c(Oc3ccc(=O)n(-c4cc(F)cc(F)c4)c3)c(Cl)c2)c(=O)[nH]c1=O [Example 29, 2-(3,5-Dichloro-4-((1-(3,5-difluorophenyl)-6-oxo-1,6-dihydropyridin-3-yl)oxy)phenyl) -3,5-dioxo-2,3,4,5-tetrahydro-1,2,4-triazine-6-carbonitrile] | 297 |  | 
Cc1cc(C)cc(-n2cc(Oc3c(Cl)cc(-n4nc(C#N)c(=O)[nH]c4=O)cc3Cl)ccc2=O)c1 [Example 30, 2-(3,5-dichloro-4-((1-(3,5-dimethylphenyl)-6-oxo-1,6-dihydropyridin-3-yl)oxy)phenyl)-3,5-dioxo-2,3,4,5-tetrahydro-1,2,4-triazine-6-carbonitrile] | 150 |  | 
N#Cc1nn(-c2cc(Cl)c(Oc3ccc(=O)n(-c4cccc(C5CC5)c4)c3)c(Cl)c2)c(=O)[nH]c1=O [Example 31, 2-(3,5-dichloro-4-((1-(3-cyclopropylphenyl)-6-oxo-1,6-dihydropyridin-3-yl)oxy)phenyl)-3,5-dioxo-2,3,4,5-tetrahydro-1,2,4-triazine-6-carbonitrile] | 81 |  | 
N#Cc1nn(-c2cc(Cl)c(Oc3ccc(=O)n(-c4ccsc4)c3)c(Cl)c2)c(=O)[nH]c1=O [Example 32, 2-(3,5-Dichloro-4-((6-oxo-1-(thiophen-3-yl)-1,6-dihydropyridin-3-yl)oxy)phenyl)-3,5-dioxo-2,3,4,5-tetrahydro-1,2,4-triazine-6-carbonitrile] | 100 |  | 
N#Cc1nn(-c2cc(Cl)c(Oc3ccc(=O)n(-c4cccs4)c3)c(Cl)c2)c(=O)[nH]c1=O [Example 33, 2-(3,5-Dichloro-4-((6-oxo-1-(thien-2-yl)-1,6-dihydropyridin-3-yl)oxy)phenyl)-3,5-diox o-2,3,4,5-tetrahydro-1,2,4-triazine-6-carbonitrile] | 119 |  | 
N#Cc1nn(-c2cc(Cl)c(Oc3ccc(=O)n(-c4nccs4)c3)c(Cl)c2)c(=O)[nH]c1=O [Example 34, 2-(3,5-dichloro-4-((6-oxo-1-(thiazol-2-yl)-1,6-dihydropyridin-3-yl)oxy)phenyl)-3,5-dioxo-2,3,4,5-tetrahydro-1,2,4-triazine-6-carbonitrile] | 435 |  | 
O=c1[nH]c(=O)n(-c2cc(Cl)c(Oc3ccc(=O)n(-c4ccc(F)cc4)c3)c(Cl)c2)nc1CF [Example 37, 2-(3,5-dichloro-4-((1-(4-fluorophenyl)-6-oxo-1,6-dihydropyridin-3-yl)oxy)phenyl)-6-(fluoromethyl)-1,2,4-triazine-3,5(2H, 4H)-dione] | 92 | 9260 | 100.6

Compounds with a lower EC50 (THRβ), results first:

EC50 (THRβ) [nM] | EC50 (THRα) [nM] | THRα/β selectivity (fold) (THRα) | Structure (SMILES)
22 |  |  | N#Cc1nn(-c2cc(Cl)c(Oc3ccc(=O)n(C4=CCCCC4)c3)c(Cl)c2)c(=O)[nH]c1=O [Example 13, 2-(3,5-Dichloro-4-((1-(cyclohex-1-en-1-yl)-6-oxo-1,6-dihydropyridin-3-yl)oxy)phenyl) -3,5-dioxo-2,3,4,5-tetrahydro-1,2,4-triazine-6-carbonitrile]
26 | 2690 | 103.3 | N#Cc1nn(-c2cc(Cl)c(Oc3ccc(=O)n(-c4cccc(C(F)(F)F)c4)c3)c(Cl)c2)c(=O)[nH]c1=O [Example 23, 2-(3,5-dichloro-4-((6-oxo-1-(3-(trifluoromethyl)phenyl)-1,6-dihydropyridin-3-yl)oxy)phenyl)-3,5-dioxo-2,3,4,5-tetrahydro-1,2,4-triazine-6-carbonitrile]
23 | 810 | 35.2 | N#Cc1nn(-c2cc(Cl)c(Oc3ccc(=O)n(-c4cccc(OC(F)(F)F)c4)c3)c(Cl)c2)c(=O)[nH]c1=O [Example 24, 2-(3,5-Dichloro-4-((6-oxo-1-(3-(trifluoromethoxy)phenyl)-1,6-dihydropyridin-3-yl)oxy)phenyl)-3,5-dioxo-2,3,4,5-tetrahydro-1,2,4-triazine-6-carbonitrile]
23 | 1140 | 49.5 | N#Cc1cccc(-n2cc(Oc3c(Cl)cc(-n4nc(C#N)c(=O)[nH]c4=O)cc3Cl)ccc2=O)c1 [Example 28, 2-(3,5-Dichloro-4-((1-(3-cyanophenyl)-6-oxo-1,6-dihydropyridin-3-yl)oxy)phenyl)-3,5- -dioxo-1,2,3,4-4,5-tetrahydro-1,2,4-triazine-6-carbonitrile]
18 | 351 | 19.5 | Cc1nn(-c2cc(Cl)c(Oc3ccc(=O)n(-c4ccccc4)c3)c(Cl)c2)c(=O)[nH]c1=O [Example 36, 2-(3,5-Dichloro-4-((6-oxo-1-phenyl-1,6-dihydropyridin-3-yl)oxy)phenyl)-6-methyl-1,2,4-triazine-3,5(2H, 4H)-dione]
3 | 85 | 28.3 | O=c1[nH]c(=O)n(-c2cc(Cl)c(Oc3ccc(=O)n(-c4cccc(F)c4)c3)c(Cl)c2)nc1CF [Example 38, 2-(3,5-dichloro-4-((1-(3-fluorophenyl)-6-oxo-1,6-dihydropyridin-3-yl)oxy)phenyl)-6-(fluoromethyl)-1,2,4-triazine-3,5(2H, 4H)-dione]
8 |  |  | O=c1[nH]c(=O)n(-c2cc(Cl)c(Oc3ccc(=O)n(-c4cccs4)c3)c(Cl)c2)nc1CF [Example 43, 2-(3,5-Dichloro-4-((6-oxo-1-(thiophen-2-yl)-1,6-dihydropyridin-3-yl)oxy)phenyl)-6-(fluoromethyl)-1,2,4-triazine-3,5(2H, 4H)-dione]
3 |  |  | CC(C)n1cc(Oc2c(Cl)cc(-n3nc(CF)c(=O)[nH]c3=O)cc2Cl)ccc1=O [Example 44, 2-(3,5-Dichloro-4-((1-isopropyl-6-oxo-1,6-dihydropyridin-3-yl)oxy)phenyl)-6-(fluoromethyl)-1,2,4-triazine-3,5(2H, 4H)-dione]
32 |  |  | COCCn1cc(Oc2c(Cl)cc(-n3nc(CF)c(=O)[nH]c3=O)cc2Cl)ccc1=O [Example 45, 2-(3,5-Dichloro-4-((1-(2-methoxyethyl)-6-oxo-1,6-dihydropyridin-3-yl)oxy)phenyl)-6-(fluoromethyl)-1,2,4-triazine-3,5(2H, 4H)-dione]
